Laboratory results published in US6812221B2, “FGF-affinity chromatography” (The Texas A&M University System, priority 2000, dated 2004).
Entries after “also recorded” stand apart in the source; their conditions may differ. Blank lines part the entries; values can stand above or below the substance they belong to.

Experiments:
FGF7 = target: T1, FGF7 (Rattus norvegicus, UniProt Q02195); assay: Protease (pronase) protection assay with 125I-FGF7; type: biochemical; settings: 150 ng pronase, overnight 37° C., SDS-PAGE/autoradiography
T1 construct: GST (N, cleaved yes); made in house; host or cells: bacteria (E. coli)
T1 sequence (Q02195 55-194): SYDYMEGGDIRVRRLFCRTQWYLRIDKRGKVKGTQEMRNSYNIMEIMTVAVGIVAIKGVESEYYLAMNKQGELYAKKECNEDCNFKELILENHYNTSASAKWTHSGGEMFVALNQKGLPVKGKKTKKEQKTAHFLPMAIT
Procedure: Interaction of Heparin and Oligosaccharides with FGF. The antithrombin-binding decasaccharide (10-mer) was prepared, purified to homogeneity (28) and has the structure ΔUAp2S(1→4)-α-D-GlcNpS6S(1→4)-α-L-IdoAp(1→4)-α-D-GlcNpAc6S(1→4)-β-D-GlcAp(1→4)-α-D-GlcNpS3S6S(1→4)-α-L-IdoAp2S(1→4)-α-D-GlcNpS6S(1→4)-α-L-IdoAp2S(1→4)-α-D-GlcNpS6S. The tetradecasaccharide (14-mer) was prepared in >90% purity and characterized by multidimensional NMR spectroscopy (Toida et al. 1996). While the saccharide composition and the presence of an antithrombin-binding site pentasaccharide sequence could be confirmed, the precise placement of this sequence within the tetradecasaccharide could not be elucidated. The sequence was ΔUAp2S(1→4)-α-D-GlcNpS6S (1→4)-α-L-IdoAp2S(1→]n4)-α-D-GlcNpS6S(1→4)-α-LIdoAp(1→4)-α-D-GlcNpAc6S(1→4)-β-D-GlcAp(1→4)-α-D-GlcNpS3S6S(1→4)-α-L-IdoAp2S(1→[4)-α-D-GlcNpS6S(1→4)-α-L-IdoAp2S(1 43 ]m4)-α-D-GlcNS6S where n+m=3. The anti-factor Xa amydolytic activity of the hexasaccharide (6-mer), decasaccharide (10-mer) and tetradecasaccharide (14-mer) were 0, 3200 and 5800 units/mg, respectively, as determined against a low molecular weight heparin (Toida et al. 1996). Heparin was fractionated by antithrombin affinity chromatography (Kan et al. 1999). […] After incubation overnight at 37° C., SDS-PAGE and autoradiography were employed to quantify the remaining FGF. […]

factor Xa [1] = settings: determined against a low molecular weight heparin (Toida et al. 1996); cited from earlier work
FGFR2111b = target: T2, FGFR2111b (Homo sapiens, UniProt P21802); assay: Binding to FGFR complex on the surface of insect cells
T2 construct: expressed in transfected cells; host or cells: insect cells
Procedure: (§1) Finally, the recovery and activity of purified ^54Ser-FGF7 was tested after the removal of the GST portion by trypsin treatment from the heparin-immobilized GST-FGF7 recovered under the improved conditions employing 10 mM MgCl2 and the BL21 (DE3) pLysS strain. […] Results indicated a yield of pure ^54Ser-FGF7 of 4.8±0.5 mg per liter per OD600, which on a molar basis represents an average yield of 70 percent from the purified GST-FGF7 product.

mouse keratinocytes (MK) = assay: Mitogenic activity in cultured mouse keratinocytes (MK); type: cell-based; settings: cells in culture
Procedure: as §1

factor Xa [2] = assay: Neutralization assay, anti-Factor Xa activity of heparin; type: biochemical; settings: 0.9M NaCl eluted 6000 Da heparin fractions
Procedure: (§2) FIG. 4. Neutralization of anticoagulant activity of 0.9M NaCl eluted 6000 Da heparin (Sigma) fractions from GST-FGF7 column (closed squares) or Antithrombin column (closed triangles) by FGF7. a. 0.3, 1, 3, 10, 30 ug/ml FGF7 was used to neutralize anti-Factor Xa activity of 0.9M elute. b. 0.3, 1, 3, 10, 30 μg/ml FGF7 was used to neutralize anti-Factor IIa activity. The activity was expressed as percentage of Factor Xa or IIa activity in the presence of Antithrombin and FGF7, but absence of any heparin, subtracted by the remaining activity without FGF7 addition. […] Data represent average of at least three separate experiments.
(§3) Neutralization assay. 10 μl 1 μg/ml 0.9 M high affinity FGF7 or Antithrombin bound 6000 Da heparin (final concentration 100 ng/ml) (Sigma, St. Louis) and 10 μl various concentration of FGF7 were incubated with 10 μl 10 μg/ml Antithrombin solution. The rest of the assay was essentially followed the anti-Factor Xa or anti-Factor IIa assay described above. The activity was expressed as percentage of Factor Xa or IIa activity in the presence of Antithrombin and FGF7, but absence of any heparin, subtracted by the remaining activity without FGF7 addition.

[3] = Heparin affinity chromatography / heparin binding
Procedure: FIG. 1. Intact heparin-binding in the GST-FGF7 fusion product. Pure 200 μg GST-FGF7 and 10 ng ^125I-FGF7 (3×10^6 cpm) was mixed and subjected to heparin affinity chromatography on Pharmacia FPLC system. The GST-FGF7 was detected as a major peak (solid trace) by absorbance at 280 nm.
When fused at the N-terminal of FGF7 with a highly soluble and productive partner, Glutathione-S-transferase (GST), FGF7 was produced in bacteria at about 3.2 mg/ml yield with retained biological activity. Expressing alone has barely detectable level by immuno-reaction. Pure fusion protein was obtained by sequential chromatography on Glutathione (GSH) and Heparin affinity matrix (Luo et al. 1998, Lu et al. 1999, Jang et al. 1997). This is consistent with FGF7 crystal structure, which shown that the N-terminal of FGF7 is flexible and outside the compact core structure, and heparin-binding domain is apart from the flexible N-terminal. FGF7 itself was released by simply trypsin digestion that mimics an in vivo cleavage event (Luo et al. 1998, Lu et al. 1999, Jang et al. 1997).

Factor IIa = assay: Neutralization assay, anti-Factor IIa activity of heparin; type: biochemical; settings: 0.9M NaCl eluted 6000 Da heparin fractions
Procedure: as §2, §3

[4] = cited from earlier work

T2 sequence (P21802 22-822 isoform P21802-3 limits assumed): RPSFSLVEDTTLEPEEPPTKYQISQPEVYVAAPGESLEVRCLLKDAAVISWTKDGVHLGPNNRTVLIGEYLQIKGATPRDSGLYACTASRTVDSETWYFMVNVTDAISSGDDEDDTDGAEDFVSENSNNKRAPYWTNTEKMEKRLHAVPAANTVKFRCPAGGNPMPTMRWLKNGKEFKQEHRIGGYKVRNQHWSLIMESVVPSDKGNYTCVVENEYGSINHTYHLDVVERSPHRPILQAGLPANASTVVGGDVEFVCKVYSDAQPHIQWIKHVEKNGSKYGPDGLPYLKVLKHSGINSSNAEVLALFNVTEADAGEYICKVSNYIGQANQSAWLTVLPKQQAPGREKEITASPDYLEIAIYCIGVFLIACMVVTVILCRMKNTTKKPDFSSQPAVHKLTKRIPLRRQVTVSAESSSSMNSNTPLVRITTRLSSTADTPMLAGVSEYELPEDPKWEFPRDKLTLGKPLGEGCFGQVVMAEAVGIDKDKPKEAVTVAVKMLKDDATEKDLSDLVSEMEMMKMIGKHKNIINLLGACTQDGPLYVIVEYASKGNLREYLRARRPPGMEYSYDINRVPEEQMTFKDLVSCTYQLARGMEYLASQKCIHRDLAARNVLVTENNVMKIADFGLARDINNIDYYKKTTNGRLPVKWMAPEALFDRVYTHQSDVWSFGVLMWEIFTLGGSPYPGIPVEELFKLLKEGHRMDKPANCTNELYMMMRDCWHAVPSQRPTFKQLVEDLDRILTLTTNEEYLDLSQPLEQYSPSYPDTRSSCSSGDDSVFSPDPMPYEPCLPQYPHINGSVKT

protection of FGF7 against protease (FGF7): able to protect
Substance: ΔUAp2S(1→4)-α-D-GlcNpS6S(1→4)-α-L-IdoAp(1→4)-α-D-GlcNpAc6S(1→4)-β-D-GlcAp(1→4)-α-D-GlcNpS3S6S(1→4)-α-L-IdoAp2S(1→4)-α-D-GlcNpS6S(1→4)-α-L-IdoAp2S(1→4)-α-D-GlcNpS6S [decasaccharide (10-mer)]
anti-factor Xa amydolytic activity (factor Xa [1]): 3200 units/mg

sodium chloride concentration of elution from heparin affinity column ([3]; heparin affinity chromatography, FPLC (FIG. 1)): about 0.9 M
Substance: GST-FGF7: fusion protein Glutathione-S-Transferase-Fibroblast Growth Factor 7, SEQ ID NO.4
binding to / activation of the FGFR complex (FGFR2111b): Neither GST-FGF1 nor GST-FGF7 bind and activate the FGFR kinase complex; also recorded: inactive | mitogenic activity (mouse keratinocytes (MK)): Neither GST-FGF1 nor GST-FGF7 bind and activate the FGFR kinase complex and exhibit mitogenic activity; also recorded: inactive | neutralization of anti-Factor Xa activity compared with FGF7 (factor Xa [2]): same neutralization effects as FGF7 | heparin binding [3]: retain affinity for heparin similar to the unfused products; also recorded: fully active | neutralization of anti-Factor IIa activity compared with FGF7 (Factor IIa): same neutralization effects as FGF7

Substance: protamine
incidence of mild reactions ([4]; use of protamine in patients): ≤ 16%

Substance: GST-FGF1: human FGF1 fused to Glutathione-S-Transferase (GST)
binding to / activation of the FGFR complex (FGFR2111b): Neither GST-FGF1 nor GST-FGF7 bind and activate the FGFR kinase complex | mitogenic activity (mouse keratinocytes (MK)): Neither GST-FGF1 nor GST-FGF7 bind and activate the FGFR kinase complex and exhibit mitogenic activity | heparin binding [3]: retain affinity for heparin similar to the unfused products

Substance: PF4: Heparin-binding platelet factor 4, proposed scavenger for neutralizing the anticoagulant effect
adverse effect of administration to patients ([4]; humans (U.S. Pat. No. 5,801,063)): serious granulocytopenia

protection of FGF7 against protease (FGF7): able to protect
Substance: ΔUAp2S(1→4)-α-D-GlcNpS6S (1→4)-α-L-IdoAp2S(1→]n4)-α-D-GlcNpS6S(1→4)-α-LIdoAp(1→4)-α-D-GlcNpAc6S(1→4)-β-D-GlcAp(1→4)-α-D-GlcNpS3S6S(1→4)-α-L-IdoAp2S(1→[4)-α-D-GlcNpS6S(1→4)-α-L-IdoAp2S(1 43 ]m4)-α-D-GlcNS6S where n+m=3 [tetradecasaccharide (14-mer)]
anti-factor Xa amydolytic activity (factor Xa [1]): 5800 units/mg

Substance: heparin
patients developing clinically significant osteoporosis ([4]; human, in vivo): half | patients with thrombocytopenia persisting for the duration of therapy ([4]; human, in vivo): approximately 5%
